# Measured values as given in patent publication US20250009844A1, “MATURATION OF MUCOSAL DEFENSE AND GUT/LUNG FUNCTION IN THE PRETERM INFANT” (Novozymes A/S, priority 2017, published 2025).
# “Also recorded” adds a separate entry of the source. No end group written: not given here.
# Experiments:
# [1] = system: BALB/c mice; assay: Prophylactic treatment in murine house dust mite driven model of allergic asthma (Example 5); type: in vivo; conditions: for Increase of airway resistance (airway hyper responsiveness) / Decrease of pulmonary compliance: vs HDM challenged vehicle
# Description: Treatment regime: Female 7-10 weeks old BALB/c mice were randomly allocated into 5study groups one day prior to study start and subcutaneously (SC) sensitized to house dust mite (100 μg HDM in 200 uL saline plus Freund's complete adjuvant in 0.9% saline). The mice were treated with hBD-2 orally and intranasally respectively at a dose of 1.2 mg/kg/day (0.4 mg/kg TID) starting on day 12 in the morning and continued TID at approximately 6 hours intervals. The last dose was administered on day 14 one hour prior to challenge. The total number of doses was 8 doses or a total of […] hBD-2.Mice were then intranasally (IN) challenged with HDM on day 14 (HDM 25 μg in 50 μL of saline) (FIG. 2).
# Airway inflammation: At 48 hours post challenge, bronchoalveolar lavage was performed washing the lungs with 3 volumes of cold PBS (0.4; 0.3 and 0.3 mL, total 1 mL). Total and differential leucocyte cell counts were determined on an automated haematological analyser Sysmex XT-2000iV.
# Lung function: Starting 48 hours after HDM challenge, measurements of lung resistance and lung compliance were carried out after methacholine challenge (3.125 MCH1; 6.25 MCH2; 12.5 MCH3 and 25 mg/mL MCH4) by anaesthetized, cannulated mice using DSI's Buxco Finepoint RC system. Data are represented as airway resistance at […] methacholine and as dose responsive curves. Lung sampling for cytokine analysis: After completion of every BAL, lungs were removed from the thorax, snap frozen in liquid nitrogen and stored frozen at −80 degrees Celsius until analysis of cytokine concentration of TNF-α, IL-4, IL-5, IL-6, IL-9, IL-13 and IL-33 in lung homogenate by ELISA.
# [2] = system: BALB/c mice; assay: Murine model of acute graft versus host disease following stem cell transplantation, oral hBD-2 (Example 11); type: in vivo; conditions: for Intestinal T cell infiltration / Myeloid cell infiltration / Infiltration with CD45+ leucocytes: lamina propria; for Infiltration with CD45+ leucocytes: FACS analysis
# Description: Bone marrow was harvested: hind limbs harvested from 2 female WT C57BL/6 mice aseptically. Skeletal muscle was removed and epiphysis cut away. Lumen of bone flushed with PBS and cells pelleted and taken up. Harvest of T-cells: spleens from 2 female WT C57BL/6 mice were meshed through a […] cell strainer into a PBS filled dish. Cells were taken up in PBS and transferred into a 50 mL falcon tube and spun down. Cells were taken up in 1 mL PBS and 20 μL of CD4 microbead+20 μL CD8 microbeads per spleen added for incubation for 20 min at 4 degrees C. Cells were washed with PBS and applied to MACS separation in order to positively select CD4+ and CD8+ cells. Positively selected T-cells were counted and taken up. Transplantation: directly after the second irradiation, all WT BALB/c recipient mice were injected with 5×1.000.000 BM cells (50 μL) i.v. into the retroorbital venous plexus under isoflurane anesthesia. 15 BALB/c mice were treated with 1.2 mg of hBD2/kg BW/day in 100 μL PBS per day vial oral gavage from day 0-10.
# 15 BALB/c mice received vehicle 100 μL PBS per day via oral gavage from day 0-10.
# The mice were weighed daily for the initial 7 days and survival was monitored for 100 days.
# [3] = intranasal administration, not statistically significantly different from the control
substance,measurement,setting,value
human beta defensin 2 (GIGDPVTCLKSGAICHPVFCPRRYKQIGTCGLPGTKCCKKP; ends and bridges not checked; cysteine pairing not given here; listed as Homo sapiens) [hBD-2],Increase of airway resistance (airway hyper responsiveness),"[1]; intranasal 0.4 mg/kg TID day 12 to day 14, 8 administrations",effectively inhibited increase of airway resistance
same,Decrease of pulmonary compliance,[1]; intranasal 0.4 mg/kg TID day 12 to day 14,effectively inhibited
same,IL-4 concentration in lung tissue homogenate,[1]; [3],trend towards lowering
same,IL-5 concentration in lung tissue homogenate,[1]; [3],trend towards lowering
same,IL-6 concentration in lung tissue homogenate,[1]; [3],trend towards lowering
same,IL-9 concentration in lung tissue homogenate,[1]; [3],trend towards lowering
same,IL-13 concentration in lung tissue homogenate,[1]; [3],trend towards lowering
same,TNF-α concentration in lung tissue homogenate,[1]; [3],trend towards lowering
same,Increase of airway resistance (airway hyper responsiveness),"[1]; oral 0.4 mg/kg TID day 12 to day 14, 8 administrations, 48 hours after HDM challenge",effectively inhibited increase of airway resistance
same,Decrease of pulmonary compliance,[1]; oral 0.4 mg/kg TID day 12 to day 14,effectively inhibited
same,IL-4 concentration in lung tissue homogenate,[1]; oral administration,complete normalization of cytokine concentrations
same,IL-5 concentration in lung tissue homogenate,[1]; oral administration,complete normalization of cytokine concentrations
same,IL-6 concentration in lung tissue homogenate,[1]; oral administration,complete normalization of cytokine concentrations
same,IL-9 concentration in lung tissue homogenate,[1]; oral administration,complete normalization of cytokine concentrations
same,IL-13 concentration in lung tissue homogenate,[1]; oral administration,complete normalization of cytokine concentrations
same,TNF-α concentration in lung tissue homogenate,[1]; oral administration,complete normalization of cytokine concentrations
same,Neutrophil counts in BALF,"[1]; oral application, 48 hours post challenge",significantly inhibited neutrophil counts
same,Mortality,"[2]; 15 mice oral hBD-2 for 10 days vs 15 mice PBS, p<0.0001",highly statistically significant reduction of mortality
same,Share of treated mice that had died by day 35,"[2]; 15 mice, 1.2 mg/kg BW/day oral gavage day 0-10",less than 30%
same,Mice that had died by day 35,"[2]; 15 mice, 1.2 mg/kg BW/day oral gavage day 0-10, all 15 vehicle mice had died by day 35",4
same,Mice still alive by day 100,"[2]; 15 mice, 1.2 mg/kg BW/day oral gavage day 0-10, p<0.0001",8
same,IL-1β from myeloid cells,[2]; FACS analysis of the spleen,Reduced IL-1B production in myeloid cells; also recorded: reduction of IL-1β from myeloid cells
same,Neutrophils,[2]; FACS analysis of the spleen,Reduced proportion of neutrophils; also recorded: reduced number of neutrophils
same,"Th1 cytokine production, IFN-γ","[2]; FACS analysis of the spleen, CD4, CD8 and CD69+CD4 T cells",reduced Th 1 cytokine production; also recorded: reduced Th1 cytokine production
same,"Th1 cytokine production, TNF-α","[2]; FACS analysis of the spleen, CD4 and CD8 T cells",reduced Th 1 cytokine production; also recorded: reduced Th1 cytokine production
same,Weight loss,[2]; first 7 days following bone marrow transplantation,lost statistically significantly less weight
same,Microarray analysis of colon samples,[2]; hBD-2 treated group versus PBS,"decreased inflammation, leucocyte and myeloid cell migration and tissue remodelling"
same,Intestinal T cell infiltration,[2],Reduction of intestinal T cell and myeloid cell infiltration
same,Myeloid cell infiltration,[2],Reduction of intestinal T cell and myeloid cell infiltration
same,Infiltration with CD45+ leucocytes,[2],Reduced CD45+leucocyte cell migration
same,Infiltration with CD45+ leucocytes,[2]; listed as hBD2,reduced the infiltration
same,Intestinal T cell infiltration,[2]; listed as hBD2,reduced
same,Myeloid cell infiltration,[2]; listed as hBD2,reduced
same,IL-6 concentration,[2]; serum,reduction of TNF-α and IL-6 concentrations
same,IL-10 concentration,[2]; serum,increased concentration of IL-10
same,TNF-α concentration,[2]; serum,reduction of TNF-α and IL-6 concentrations
same,Histology score of the colon,[2]; vs PBS,statistically significant reduction of histology score; also recorded: highly statistically lower
same,Histology score of the liver,[2]; vs PBS,statistically significant reduction of histology score; also recorded: highly statistically lower
same,Histology score of the small intestine,[2]; vs PBS,statistically significant reduction of histology score; also recorded: highly statistically lower
